Measurements as given in BindingDB's records for doi:10.1016/j.ejmech.2020.113107 (Yantai University, 2021).

Tests used:
[1] = Reversal of P-glycoprotein mediated multidrug resistance in human KBV cells assessed as reversal of resistance to paclitaxel-induced cytotoxicity by measuring paclitaxel IC50 at 5 uM measured after 72 hrs by MTT assay
[2] = Reversal of P-glycoprotein mediated multidrug resistance in human KBV cells assessed as reversal of resistance to paclitaxel-induced cytotoxicity by measuring paclitaxel IC50 at 10 uM measured after 72 hrs by MTT assay
[3] = Reversal of P-glycoprotein mediated multidrug resistance in human KBV cells assessed as reversal of resistance to vincristine-induced cytotoxicity by measuring vincristine IC50 at 5 uM measured after 72 hrs by MTT assay
[4] = Reversal of P-glycoprotein mediated multidrug resistance in human KBV cells assessed as reversal of resistance to vincristine-induced cytotoxicity by measuring vincristine IC50 at 10 uM measured after 72 hrs by MTT assay
[5] = Reversal of P-glycoprotein mediated multidrug resistance in human MCF-7T cells assessed as reversal of resistance to paclitaxel-induced cytotoxicity by measuring paclitaxel IC50 at 5 uM measured after 72 hrs by MTT assay
[6] = Reversal of P-glycoprotein mediated multidrug resistance in human MCF-7T cells assessed as reversal of resistance to paclitaxel-induced cytotoxicity by measuring paclitaxel IC50 at 10 uM measured after 72 hrs by MTT assay
[7] = Reversal of P-glycoprotein mediated multidrug resistance in human MCF-7T cells assessed as reversal of resistance to vincristine-induced cytotoxicity by measuring vincristine IC50 at 5 uM measured after 72 hrs by MTT assay
[8] = Reversal of P-glycoprotein mediated multidrug resistance in human MCF-7T cells assessed as reversal of resistance to vincristine-induced cytotoxicity by measuring vincristine IC50 at 10 uM measured after 72 hrs by MTT assay

Compound | IC50 [1] | IC50 [2] | IC50 [3] | IC50 [4] | IC50 [5] | IC50 [6] | IC50 [7] | IC50 [8]
COc1cc2c(cc1OC)CN(CCc1ccc(NC(=O)c3cc(OC)c(OC)cc3NC(=O)c3cnc4ccccc4c3)cc1)CC2 | 7.6 nM | 4.5 nM | 3.3 nM | 2.1 nM | 3.3 nM | 0.26 nM | 0.71 nM | 0.22 nM
CC1(C)CC[C@]2(C(=O)OCc3ccccc3)CC[C@]3(C)C(=CC[C@@H]4[C@@]5(C)Cc6nccnc6[C@@](C)(CO)[C@@H]5CC[C@]43C)[C@@H]2C1 | 59 nM | 16 nM | 17 nM | 2.2 nM | 13 nM | 1.5 nM | 6.9 nM | 0.03 nM
CC1(C)CC[C@]2(C(=O)OCc3ccccc3)CC[C@]3(C)C(=CC[C@@H]4[C@@]5(C)Cc6nccnc6[C@@](C)(COC(=O)CCC(=O)OCCOCCOCCOCCO)[C@@H]5CC[C@]43C)[C@@H]2C1 | 22 nM | 4.6 nM | 4 nM | 0.79 nM | 5.4 nM | 0.89 nM | 5.3 nM | 0.04 nM
